Data on two compounds can be found in patent publication US8697096B2, “Tape preparation comprising etodolac in ionic liquid form” (priority 2007, dated 2014).

A short description of data set [1]: physchem.
Data set [2] is described as follows: Tissue concentration of etodolac by administration route (oral vs transdermal), leg muscle of rat. Format: in vivo. Conditions: 12 mg/kg etodolac suspended in CMC, FIG. 8. As to the method:
In the case of oral administration, four male SD rats (5 weeks old) are used as a group and 12 mg/kg of etodolac suspended in CMC is forced to be taken in by using a probe. The dose is fixed around about 1.1˜1.5 mg/rat. After a lapse of a certain period of time since the forced feeding, an animal is killed by blood removal under anesthesia. Later the leg was amputated, divided into skin and other tissues and the drug concentrations in the muscle tissue and plasma were assayed.
The applied area of the sample was adjusted so that transdermally available amount of etodolac was about 0.7 mg/rat when applied for 24 hours. After a lapse of a certain period of time since the application of the sample, an animal is killed by blood removal under anesthesia. Later the leg was amputated, divided into skin and other tissues and the drug concentrations in the muscle tissue and plasma were assayed.

In the case of `CCc1cccc2c3c([nH]c12)C(CC)(CC(=O)O)OCC3` (stereo not drawn) [etodolac], in data set [1], the pKa was 4.65. Moreover, in data set [2], the “drug-concentration in the muscle tissue” value is “not increased so much”.

Regarding `CC(O)CN(CC(C)O)CC(C)O` (stereo not drawn) [triisopropanolamine], the pKa in data set [1] was found to be 8.03.
